Laboratory results published in the supplement of paper PMC10307832.

How the values were obtained:
Test in all cases: relative viability (nuclei count vs DMSO), 5 days (fraction); higher = more cells survive
[1] = system: HCC-15
Method in brief: (§1)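 The day after seeding in 1536-well plates, lung cancer cell lines were treated by pin tool with a single drug, or with a fixed anchor-drug dose together with five library-drug doses (not always all listed) in √10 steps. After 5 days, a combined fix-and-stain solution (final 0.05% Triton X-100, 1% formaldehyde, 1 ug/ml Hoechst) was added. Nuclei counted on 4× images gave relative viability as treated counts over vehicle counts, reported as the median of duplicate plates.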

[2] = system: SW 1573
Method in brief: as §1

[3] = system: RERF-LC-KJ
Method in brief: as §1

[4] = system: COR-L23
Method in brief: as §1

[5] = system: LCLC-97TM1
Method in brief: as §1

[6] = system: NCI-H2009
Method in brief: as §1

[7] = system: LCLC-103H
Method in brief: as §1

[8] = system: HARA
Method in brief: as §1

[9] = system: 201T
Method in brief: as §1

[10] = system: NCI-H2023
Method in brief: as §1

[11] = system: NCI-H2126
Method in brief: as §1

[12] = system: LOU-NH91
Method in brief: as §1

SMILES: O=C(O)CCCCC(CCSCc1ccccc1)SCc1ccccc1 (configuration not stated) [CPI-613] + N=C(N)NC(=N)NCCc1ccccc1 [Phenformin] (partner 250 µM)
- relative viability ([1]; first compound 5 µM): 0.435
- relative viability ([1]; first compound 15.81 µM): 0.439
- relative viability ([1]; first compound 50 µM): 0.414
- relative viability ([1]; first compound 158.11 µM): 0.178
- relative viability ([1]; first compound 500 µM): 0.0244
- relative viability ([2]; first compound 5 µM): 0.347
- relative viability ([2]; first compound 15.81 µM): 0.357
- relative viability ([2]; first compound 50 µM): 0.304
- relative viability ([2]; first compound 158.11 µM): 0.0746
- relative viability ([2]; first compound 500 µM): 0.0663
- relative viability ([3]; first compound 5 µM): 0.42
- relative viability ([3]; first compound 15.81 µM): 0.409
- relative viability ([3]; first compound 50 µM): 0.406
- relative viability ([3]; first compound 158.11 µM): 0.134
- relative viability ([3]; first compound 500 µM): 0.0945
- relative viability ([4]; first compound 5 µM): 0.438
- relative viability ([4]; first compound 15.81 µM): 0.393
- relative viability ([4]; first compound 50 µM): 0.475
- relative viability ([4]; first compound 158.11 µM): 0.199
- relative viability ([4]; first compound 500 µM): 0.0157
- relative viability ([5]; first compound 5 µM): 0.446
- relative viability ([5]; first compound 15.81 µM): 0.325
- relative viability ([5]; first compound 50 µM): 0.405
- relative viability ([5]; first compound 158.11 µM): 0.371
- relative viability ([5]; first compound 500 µM): 0.0437
- relative viability ([6]; first compound 5 µM): 0.478
- relative viability ([6]; first compound 15.81 µM): 0.443
- relative viability ([6]; first compound 50 µM): 0.42
- relative viability ([6]; first compound 158.11 µM): 0.0548
- relative viability ([6]; first compound 500 µM): 0.0187
- relative viability ([7]; first compound 5 µM): 0.322
- relative viability ([7]; first compound 15.81 µM): 0.297
- relative viability ([7]; first compound 50 µM): 0.377
- relative viability ([7]; first compound 158.11 µM): 0.294
- relative viability ([7]; first compound 500 µM): 0.278
- relative viability ([8]; first compound 15.81 µM): 0.394
- relative viability ([8]; first compound 50 µM): 0.444
- relative viability ([8]; first compound 158.11 µM): 0.267
- relative viability ([8]; first compound 500 µM): 0.0155
- relative viability ([9]; first compound 5 µM): 0.514
- relative viability ([9]; first compound 15.81 µM): 0.432
- relative viability ([9]; first compound 50 µM): 0.415
- relative viability ([9]; first compound 158.11 µM): 0.36
- relative viability ([9]; first compound 500 µM): 0.0726
- relative viability ([10]; first compound 5 µM): 0.399
- relative viability ([10]; first compound 15.81 µM): 0.37
- relative viability ([10]; first compound 50 µM): 0.36
- relative viability ([10]; first compound 158.11 µM): 0.0556
- relative viability ([10]; first compound 500 µM): 0.0073
- relative viability ([11]; first compound 5 µM): 0.535
- relative viability ([11]; first compound 15.81 µM): 0.524
- relative viability ([11]; first compound 50 µM): 0.585
- relative viability ([11]; first compound 158.11 µM): 0.368
- relative viability ([11]; first compound 500 µM): 0.0437
- relative viability ([12]; first compound 5 µM): 0.784
- relative viability ([12]; first compound 15.81 µM): 0.591
- relative viability ([12]; first compound 50 µM): 0.652
